Measured values taken from PMC12000094, “Development of a highly sensitive luciferase assay for intracellular evaluation of coronavirus Mpro activity” (Frontiers in Microbiology, 2025).
Where two headings read alike, the source gives them in different places. Square brackets hold non-standard residues; d marks the D form. Peptide text beside a SMILES is read from it. Nle = CCCC[C@H](N)C(=O)O

Assays:
HCoV-229E [1] = assay: microbe, parasite or virus in culture; format: cell-based, HCoV-229E (Huh-7 cells); conditions: for IC50: read-out: IC50 (inhibition of luciferase expression, HCoV-229E infection); for antiviral potency against HCoV 229E in words: ICMP assay, Huh-7 cells
HCoV-229E [2] = assay: RT-qPCR of viral RNA and Mpro gene in HCoV-229E-infected, drug-treated Huh-7 cells; format: cell-based, HCoV-229E (Huh-7 cells); conditions: infected Huh-7 cells, 48 h post-infection
229E coronavirus = test system: 229E coronavirus; parameters: method as in Boras et al., 2021; conditions: cell-based assay; ref Boras et al., 2021; read-out: IC50 (anti-229E coronavirus activity, previous study); cited from earlier work
[3] = Human coronavirus 229E, Huh-7, 48 h

Compound	IC50 (HCoV-229E [1]; [3]) [nM]	IC50 (HCoV-229E [1]) [nM]	antiviral potency against HCoV 229E in words (HCoV-229E [1])	further results
CC(C)(C)[C@H](NC(=O)C(F)(F)F)C(=O)N1C[C@H]2[C@@H]([C@H]1C(=O)N[C@H](C#N)C[C@@H]1CCNC1=O)C2(C)C [Nirmatrelvir]	233			
CC(C)C[C@H](NC(=O)OCc1ccccc1)C(=O)N[C@@H](CC1CCNC1=O)C(O)S(=O)(=O)O (stereo partly drawn) [GC376]		345		
CCCC[C@@H](C=O)NC(=O)[C@H](CC(C)C)NC(=O)[C@H](CC(C)C)NC(C)=O [MG-101] (Ac-Leu-Leu-[Nle]-aldehyde)		2800	moderate cellular inhibition	
COc1cccc2[nH]c(C(=O)N[C@@H](CC(C)C)C(=O)N[C@@H](C[C@@H]3CCNC3=O)C(=O)COP(=O)(O)O)cc12 [Lufotrelvir]	65			intracellular 229E Mpro expression (RT-qPCR, normalized to GAPDH) versus drug concentration (HCoV-229E [2]; increasing drug concentration): decreased significantly; HCoV 229E viral RNA levels (RT-qPCR, normalized to GAPDH) versus drug concentration (HCoV-229E [2]; increasing drug concentrations): negative correlation; IC50 (229E coronavirus): 58 nM
CC(C)(C)c1ccc(N(C(=O)c2cnc[nH]2)[C@@H](C(=O)NC2CCCCC2)c2cccnc2)cc1 [X77]		457		
CC(C)(C)NC(=O)N[C@H](C(=O)N1C[C@H]2[C@@H]([C@H]1C(=O)NC(CC1CCC1)C(=O)C(N)=O)C2(C)C)C(C)(C)C (stereo partly drawn) [Boceprevir]	> 50000		very weak inhibitory potency	
CC(C)C[C@H](NC(=O)OCc1ccccc1)C(=O)N[C@@H](C[C@@H]1CCNC1=O)C(O)S(=O)(=O)[O-].[Na+] (stereo partly drawn) [GC376]			effectively suppresses the replication	
O=c1cc(-c2ccc(O)c(O)c2)oc2cc(O[C@@H]3O[C@H](CO)[C@@H](O)[C@H](O)[C@H]3O)cc(O)c12 [Cynaroside, luteolin 7-O-β-D-glucoside]		21600	moderate inhibitory effects	antiviral potency against HCoV 229E in words (HCoV-229E [1]; listed as cynaroside): moderate antiviral activity
